Test results reported in patent US10227344B2, “CK2 inhibitors, compositions and methods thereof” (Polaris Pharmaceuticals, Inc., priority 2016, dated 2019).
Where a name gives a salt, the structure may show the parent alone.

Molecular target: purified CK2α enzyme (Homo sapiens, UniProt P68400)
Test: CK2 Protein Kinase Inhibition Assay (coupled PK/LDH assay)
Type: biochemical
Conditions: CK2 enzyme 25 nM, 100 μM ATP, 37° C., Morrison equation
Protocol: A coupled PK (pyruvate kinase)/LDH (lactate dehydrogenase) assay was used to measure compounds' ability to inhibit purified CK2α enzyme.
The ADP product of kinase CK2a is the cofactor for PK. Phospho(enol)pyruvate (PEP) PEP is metabolized by pyruvate kinase to yield pyruvate, which is the substrate for LDH.
Serially diluted compounds were pre-incubated for 10 min at 37° C. with and 1.5 mM […] peptide substrate, 6 U/ml PK and 10 U/ml LDH (purchased from Sigma-Aldrich), 100 μM ATP, 1.2 mM NADH, 4 mM PEP in the reaction buffer (50 mM Tris (pH 8.25), 0.1 M NaCl, 10 mM magnesium acetate). The reaction was initiated by the addition of an equal volume of purified CK2 enzyme (final concentration 25 nM) diluted in the reaction buffer. Absorbance at 340 nm was measured overtime (for 30 min) at 37° C.; as NADH was converted to NAD+ the absorbance decreases. Absorbance decrease rate (per min) was plotted against the compound concentration and Ki is determined by GraphPad Prism using Morrison equation. All data points were performed in triplicate and each compound was tested in at least two separate experiments.
To this end, K, values of less than 2.5 nM are labelled as “+++”, from 2.5 nM to 10 nM are labelled as “++”, and greater than 10 nM are labelled as “+”.

Chain of purified CK2α enzyme (P68400 whole entry): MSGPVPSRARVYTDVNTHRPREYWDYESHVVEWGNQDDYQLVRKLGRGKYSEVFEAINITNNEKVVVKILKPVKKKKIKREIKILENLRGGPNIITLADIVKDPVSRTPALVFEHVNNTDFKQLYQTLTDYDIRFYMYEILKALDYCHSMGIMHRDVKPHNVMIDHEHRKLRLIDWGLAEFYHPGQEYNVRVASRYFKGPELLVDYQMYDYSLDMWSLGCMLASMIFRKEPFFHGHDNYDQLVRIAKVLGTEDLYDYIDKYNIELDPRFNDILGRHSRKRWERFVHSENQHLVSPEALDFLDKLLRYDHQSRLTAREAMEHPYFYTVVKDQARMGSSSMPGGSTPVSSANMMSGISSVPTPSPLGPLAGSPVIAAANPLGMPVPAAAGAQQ

Row | Ki [nM] | Compound
1 | < 2.5 | C[S+]([O-])Cc1cc(Nc2cc(NC3CC3)n3ncc(C#N)c3n2)ccc1Cl (racemic) [Example 1, (±)-5-((4-Chloro-3-((methylsulfinyl)methyl)phenyl)amino)-7-(cyclopropylamino)pyrazolo[1,5-a]pyrimidine-3-carbonitrile]
2 | 2.5 to 10 | C[S+]([O-])Cc1cc(Nc2cc(NC3CC3)n3ncc(C#N)c3n2)ccc1F (racemic) [Example 5, (±)-7-(Cyclopropylamino)-5-((4-fluoro-3-((methylsulfinyl)methyl)phenyl)amino)pyrazolo[1,5-a]pyrimidine-3-carbonitrile]
3 | 2.5 to 10 | C[S+]([O-])Cc1cc(Nc2cc(NC3CC3)n3ncc(C#N)c3n2)ccc1C#N (racemic) [Example 6, (±)-5-((4-Cyano-3-((methylsulfinyl)methyl)phenyl)amino)-7-(cyclopropylamino)pyrazolo[1,5-a]pyrimidine-3-carbonitrile]
4 | < 2.5 | CN(CCN)c1ccc(Nc2cc(NC3CC3)n3ncc(C#N)c3n2)cc1C[S+](C)[O-] (racemic) [Example 7, (±)-5-((4-((2-Aminoethyl)(methyl)amino)-3-((methylsulfinyl)methyl)phenyl)amino)-7-(cyclopropylamino)pyrazolo[1,5-a]pyrimidine-3-carbonitrile mono trifluoroacetic acid salt]
5 | < 2.5 | C[S+]([O-])Cc1cc(Nc2cc(NC3CC3)n3ncc(C#N)c3n2)ccc1CCN (racemic) [Example 8, (±)-5-((4-(2-Aminoethyl)-3-((methylsulfinyl)methyl)phenyl)amino)-7-(cyclopropylamino)pyrazolo[1,5-a]pyrimidine-3-carbonitrile mono trifluoroacetic acid salt]
6 | 2.5 to 10 | CS(=N)(=O)Cc1cc(Nc2cc(NC3CC3)n3ncc(C#N)c3n2)ccc1Cl (racemic) [Example 12, (±)-5-((4-Chloro-3-((S-methylsulfonimidoyl)methyl)phenyl)amino)-7-(cyclopropylamino)pyrazolo[1,5-a]pyrimidine-3-carbonitrile]
7 | < 2.5 | C[S+]([O-])Cc1cc(Nc2cc(NC3CC3)n3ncc(C#N)c3n2)ccc1C1CC1 (racemic) [Example 13, (±)-5-((4-Cyclopropyl-3-((methylsulfinyl)methyl)phenyl)amino)-7-(cyclopropylamino)pyrazolo[1,5-a]pyrimidine-3-carbonitrile]
8 | 2.5 to 10 | C[S+]([O-])Cc1cc(Nc2cc(NC3CC3)n3ncc(C#N)c3n2)ccc1N1CCNCC1 (racemic) [Example 14, (±)-7-(Cyclopropylamino)-5-((3-((methylsulfinyl)methyl)-4-(piperazin-1-yl)phenyl)amino)pyrazolo[1,5-a]pyrimidine-3-carbonitrile mono trifluoroacetic acid salt]
9 | 2.5 to 10 | C[S+]([O-])Cc1cc(Nc2cc(NC3CC3)n3ncc(C#N)c3n2)ccc1CN (racemic) [Example 15, (±)-5-((4-(Aminomethyl)-3-((methylsulfinyl)methyl)phenyl)amino)-7-(cyclopropylamino)pyrazolo[1,5-a]pyrimidine-3-carbonitrile mono trifluoroacetic acid salt]
10 | < 2.5 | CN(CC1CC1)c1ccc(Nc2cc(NC3CC3)n3ncc(C#N)c3n2)cc1C[S+](C)[O-] (racemic) [Example 16, (±)-7-(Cyclopropylamino)-5-((4-((cyclopropylmethyl)(methyl)amino)-3-((methylsulfinyl)methyl)phenyl)amino)pyrazolo[1,5-a]pyrimidine-3-carbonitrile]
11 | < 2.5 | CNCCN(C)c1ccc(Nc2cc(NC3CC3)n3ncc(C#N)c3n2)cc1C[S+](C)[O-] (racemic) [Example 21, (±)-7-(Cyclopropylamino)-5-((4-(methyl(2-(methylamino)ethyl)amino)-3-((methylsulfinyl)methyl)phenyl)amino)pyrazolo[1,5-a]pyrimidine-3-carbonitrile mono trifluoroacetic acid salt]
12 | < 2.5 | C[S+]([O-])Cc1cc(Nc2cc(NC3CC3)n3ncc(C#N)c3n2)ccc1N1CC(O)C1 (racemic) [Example 27, (±)-7-(cyclopropylamino)-5-((4-(3-hydroxyazetidin-1-yl)-3-((methylsulfinyl)methyl)phenyl)amino)pyrazolo[1,5-a]pyrimidine-3-carbonitrile]
13 | 2.5 to 10 | C[S+]([O-])Cc1cc(Nc2cc(NC3CC3)n3ncc(C#N)c3n2)ccc1OCC1(N)CC1 (racemic) [Example 28, (±)-5-((4-((1-aminocyclopropyl)methoxy)-3-((methylsulfinyl)methyl)phenyl)amino)-7-(cyclopropylamino)pyrazolo[1,5-a]pyrimidine-3-carbonitrile mono trifluoroacetic acid salt]
14 | 2.5 to 10 | C[S+]([O-])Cc1cc(Nc2cc(NC3CC3)n3ncc(C#N)c3n2)ccc1OCC(C)(C)N (racemic) [Example 30, (±)-5-((4-(2-amino-2-methylpropoxy)-3-((methylsulfinyl)methyl)phenyl)amino)-7-(cyclopropylamino)pyrazolo[1,5-a]pyrimidine-3-carbonitrile mono trifluoroacetic acid salt]
15 | > 10 | C[S+]([O-])Cc1cc(Nc2cc(NC3CC3)n3ncc(C#N)c3n2)ccc1-c1cn[nH]c1 (racemic) [Example 35, (±)-7-(Cyclopropylamino)-5-((3-((methylsulfinyl)methyl)-4-(1H-pyrazol-4-yl)phenyl)amino)pyrazolo[1,5-a]pyrimidine-3-carbonitrile]
16 | < 2.5 | CN(c1ccc(Nc2cc(NC3CC3)n3ncc(C#N)c3n2)cc1C[S+](C)[O-])C1CC1 (racemic) [Example 36, (±)-5-((4-(Cyclopropyl(methyl)amino)-3-((methylsulfinyl)methyl)phenyl)amino)-7-(cyclopropylamino)pyrazolo[1,5-a]pyrimidine-3-carbonitrile]
17 | 2.5 to 10 | C[S+]([O-])Cc1cc(Nc2cc(NC3CC3)n3ncc(C#N)c3n2)ccc1C1(CN)CC1 (racemic) [Example 38, (±)-5-((4-(1-(Aminomethyl)cyclopropyl)-3-((methylsulfinyl)methyl)phenyl)amino)-7-(cyclopropylamino)pyrazolo[1,5-a]pyrimidine-3-carbonitrile]
18 | < 2.5 | C[S+]([O-])Cc1cc(Nc2cc(NC3CC3)n3ncc(C#N)c3n2)ccc1N1CC(N)C1 (racemic) [Example 40, (±)-5-((4-(3-Aminoazetidin-1-yl)-3-((methylsulfinyl)methyl)phenyl)amino)-7-(cyclopropylamino)pyrazolo[1,5-a]pyrimidine-3-carbonitrile]
19 | < 2.5 | C[S+]([O-])Cc1cc(Nc2cc(NC3CC3)n3ncc(C#N)c3n2)ccc1N1CC(CN)C1 (racemic) [Example 42, (±)-5-((4-(3-(Aminomethyl)azetidin-1-yl)-3-((methylsulfinyl)methyl)phenyl)amino)-7-(cyclopropylamino)pyrazolo[1,5-a]pyrimidine-3-carbonitrile]
20 | 2.5 to 10 | CN(c1ccc(Nc2cc(NC3CC3)n3ncc(C#N)c3n2)cc1C[S+](C)[O-])C1CNC1 (racemic) [Example 44, (±)-5-((4-(Azetidin-3-yl(methyl)amino)-3-((methylsulfinyl)methyl)phenyl)amino)-7-(cyclopropylamino)pyrazolo[1,5-a]pyrimidine-3-carbonitrile]
21 | < 2.5 | C[S+]([O-])Cc1cc(Nc2cc(NC3CC3)n3ncc(C#N)c3n2)ccc1N1CCCC1 (racemic) [Example 46, (±)-7-(Cyclopropylamino)-5-((3-((methylsulfinyl)methyl)-4-(pyrrolidin-1-yl)phenyl)amino)pyrazolo[1,5-a]pyrimidine-3-carbonitrile]
22 | 2.5 to 10 | CN(CCN)c1ccc(Nc2cc(NC3CC3)c3ncc(C#N)n3n2)cc1C[S+](C)[O-] (racemic) [Example 47, (±)-6-((4-((2-Aminoethyl)(methyl)amino)-3-((methylsulfinyl)methyl)phenyl)amino)-8-(cyclopropylamino)imidazo[1,2-b]pyridazine-3-carbonitrile mono trifluoroacetic acid salt]
23 | 2.5 to 10 | CN(CCN)c1ccc(Nc2nc(NC3CC3)c3ncc(C#N)n3n2)cc1C[S+](C)[O-] (racemic) [Example 49, (±)-2-((4-((2-aminoethyl)(methyl)amino)-3-((methylsulfinyl)methyl)phenyl)amino)-4-(cyclopropylamino)imidazo[2,1-f][1,2,4]triazine-7-carbonitrile mono trifluoroacetic acid salt]
24 | < 2.5 | CN(CCN)c1ccc(Nc2nc(NC3CC3)n3ncc(C#N)c3n2)cc1C[S+](C)[O-] (racemic) [Example 51, (±)-2-((4-((2-aminoethyl)(methyl)amino)-3-((methylsulfinyl)methyl)phenyl)amino)-4-(cyclopropylamino)pyrazolo[1,5-a][1,3,5]triazine-8-carbonitrile mono trifluoroacetic acid salt]
25 | < 2.5 | C[S+]([O-])Cc1cc(Nc2cc(Nc3ccccn3)n3ncc(C#N)c3n2)ccc1C1CC1 (racemic) [Example 54, (±)-5-((4-Cyclopropyl-3-((methylsulfinyl)methyl)phenyl)amino)-7-(pyridin-2-ylamino)pyrazolo[1,5-a]pyrimidine-3-carbonitrile]
